The values below come from article PMC7782499, “Progerinin, an optimized progerin-lamin A binding inhibitor, ameliorates premature senescence phenotypes of Hutchinson-Gilford progeria syndrome” (Communications Biology, 2021).

Series [1] is described as follows: Liver microsomal stability, rat. Format: in vitro ADME. As to conditions: liver microsomes, read-out: Liver microsomal stability (% remaining during 30min). Here is the method: For PK analysis, 5 mg/kg of JH4 in 10% DMSO, 5% […] solution were intravenously injected and 10 mg/kg of JH4 in 10% NMP and 90% PEG400 solution were orally delivered. At pre-set time-points, blood concentration of JH4 was determined by LC-MS/MS analysis[22],[23]. Other chemicals were also tested using similar protocol. In vitro ADME studies (plasma protein binding, CYP inhibition, microsomal stability, plasma stability, and hERG inhibition) were performed by New Drug Development Center (Daegu, Korea) using standard protocols[24],[25].
For orientation: Microsomes from liver hold many membrane-bound enzymes, among them those of drug oxidation.

Series [2] in a line: Solubility and stability of SLC-D011 in water and monoolein-based solution. Format: physicochemical. Here is the method: (§1) Fig. S9. In vitro ADME results of SLC-D011 via oral administration. A. Formulation for complete dissolution. Due to its extremely hydrophobic property, SLC-D011 was not dissolved in water solution (left). To overcome this problem, several edible solutions were tested and monoolein- based solution was selected as a dissolving solution (right). B. SLC-D011 was very stable in solution. For complete dissolution, heating at 80℃ and sonication step were required. However, SLC -D011 was not broken despite of heating […]
(§2) and sonication. […] C and D.
(§3) Pharmacokinetic analysis of SLC -D011dissolved in monoolein- based solution.

Series [3] can be described thus: Pharmacokinetic analysis of SLC-D011 dissolved in monoolein-based solution, oral. Format: in vivo. Also on record: unit not given here. As to the method: as §1, §2, §3
The next series concerns HGPS patients. Particulars: trial without placebo; cited from earlier work.

A word on the fraction remaining: it is what is left of the initial amount, in per cent. Regarding `CC1(C)Oc2cc3oc(=O)ccc3cc2C[C@@H]1OC/C=C/c1ccccc1` [SLC-D011], in series [1], the amount remaining at 0.5 h stood at 17.4%. Moreover, in series [2], the Solubility in water entry is on record as “very low solubility in water”. In addition, the “Stability in monoolein-based solution” value in series [2] (after heating and sonicating) is listed as “very stable in the solution”. Besides, the “Plasma concentration, Mean” value in series [3] (oral 10mg/kg (n=3), 0.25 hr) amounted to 41; in series [3] (oral 10mg/kg (n=3), 0.5 hr), 71; in series [3] (oral 10mg/kg (n=3), 1 hr), 124.8; in series [3] (oral 10mg/kg (n=3), 2 hr) it was 441.9; in series [3] (oral 10mg/kg (n=3), 4 hr), 318.8; in series [3] (oral 10mg/kg (n=3), 8 hr) it was 160.1. The “Plasma concentration, Mean” value in series [3] (oral 10mg/kg (n=3), 24 hr) worked out at 7.7; in series [3] (oral 20mg/kg (n=3), 0.25 hr), 67.3; in series [3] (oral 20mg/kg (n=3), 0.5 hr) it was 93.1; in series [3] (oral 20mg/kg (n=3), 1 hr) it was 537.5; in series [3] (oral 20mg/kg (n=3), 2 hr), 581.7; in series [3] (oral 20mg/kg (n=3), 4 hr), 899.9. Further, the “Plasma concentration, Mean” value in series [3] (oral 20mg/kg (n=3), 8 hr) amounted to 574; in series [3] (oral 20mg/kg (n=3), 24 hr), 9.7.

With `NC(=O)N1CCC(CC(=O)N2CCC([C@H]3c4ncc(Br)cc4CCc4cc(Cl)cc(Br)c43)CC2)CC1` [lonafarnib, reference compound], in the series with HGPS patients, the “Extension of life span” value was ~ 2 years.
